In ChEMBL document CHEMBL4311969, “Polygala tenuifolia-Acori tatarinowii herbal pair as an inspiration for substituted cinnamic α-asaronol esters: Design, synthesis, anticonvulsant activity, and inhibition of lactate dehydrogenase study” (Eur J Med Chem, 2019):
Calls of active or inactive are those of the source. The rule behind the calls is not given here.

Columns and labels:
[1] = Neurotoxicity against Kunming mouse assessed as time remained in rod at 100 mg/kg, ip administered 0.5 to 2 hrs by rotarod test; assay type: toxicity, organism-based; settings: in vivo
[2] = organism: Homo sapiens; experiment: Inhibition of human LDH5 at 0.5 mM using sodium pyruvate as substrate by UV-VIS spectrophotometry method relative to control
[3] = tested on: Mus musculus; experiment: Anticonvulsant activity in Kunming mouse assessed as MES-induced hind limb extension at 100 mg/kg, ip administered 0. 5 to 4 hrs before MES stimulation relative to control; assay type: functional
[4] = tested on: Mus musculus; experiment: Anticonvulsant activity in Kunming mouse assessed as MES-induced hind limb extension at 100 mg/kg, ip administered 0. 5 to 2 hrs before MES stimulation; assay type: functional, organism-based
[5] = organism: Homo sapiens; experiment: Inhibition of human LDH1 at 0.5 mM using sodium pyruvate as substrate by UV-VIS spectrophotometry method relative to control
[6] = tested on: Mus musculus; experiment: Anticonvulsant activity in Kunming mouse assessed as MES-induced hind limb extension at 100 mg/kg, ip administered 3 hrs before MES stimulation; assay type: functional, organism-based
[7] = Drug metabolism in Sprague-Dawley rat assessed as retention time by HPLC/MS analysis; assay type: ADME

SMILES | Activity [1] | inhibition [2] | Activity [3] | Activity [4] | inhibition [5] | Activity [6] | Retention_time [7] [min]
COc1cc(OC)c(OC)cc1CCCNC(=O)/C=C/c1cc(OC)c(OC)c(OC)c1 | Non-Toxic | 9% | 25 - 100% | Active | < 5% | – | –
COc1cc(OC)c(OC)cc1/C=C/COC(=O)/C=C/c1ccccc1F | Non-Toxic | < 9% | inactive | Active | < 5% | – | –
COc1cc(OC)c(OC)cc1/C=C/COC(=O)/C=C/c1cccc(Cl)c1 | Non-Toxic | < 9% | 25 - 100% | Active | < 5% | – | –
COc1cc(OC)c(OC)cc1/C=C/COC(=O)/C=C/c1cccc(F)c1 | Non-Toxic | < 9% | 25 - 100% | Active | < 5% | Active | –
COc1cc(OC)c(OC)cc1/C=C/COC(=O)/C=C/c1c(OC)cccc1OC | Non-Toxic | inactive | 25 - 100% | Active | inactive | Active | –
COc1cc(OC)c(OC)cc1/C=C/COC(=O)/C=C/c1ccc(C(F)(F)F)cc1 | Non-Toxic | < 9% | 25 - 100% | Active | < 5% | – | –
COc1cc(OC)c(OC)cc1/C=C/COC(=O)/C=C/c1cccc(C(F)(F)F)c1 | Non-Toxic | < 9% | inactive | Active | < 5% | – | –
COc1cc(OC)c(OC)c(OC)c1/C=C/C(=O)O | – | – | – | – | – | – | 81.4
COc1cc(OC)c(OC)cc1/C=C/COC(=O)/C=C/c1c(OC)c(OC)c(OC)c(OC)c1OC | Non-Toxic | inactive | inactive | Active | inactive | – | –
COc1cc(OC)c(OC)cc1/C=C/COC(=O)/C=C/c1cccc(OC)c1OC | Non-Toxic | inactive | 25 - 100% | Active | inactive | Active | –
COc1ccc(/C=C/C(=O)OC/C=C/c2cc(OC)c(OC)cc2OC)c(OC)c1 | Non-Toxic | inactive | 25 - 100% | Active | inactive | – | –
COc1cc(OC)c(OC)cc1/C=C\C(=O)O | – | – | – | – | – | – | 78.7
